Measurements taken from patent publication US20200325177A1, “METHODS OF MAKING STREPTOGRAMIN COMPOSITIONS AND THE USE THEREOF” (THE REGENTS OF THE UNIVERSITY OF CALIFORNIA, priority 2017, published 2020).
In brackets after ≈: the same amount, converted by molar mass. Read-outs that look alike come from different tables or passages of the source.

What was measured:
Type in all cases: cell-based
[1] = tested on: K. pneumoniae multidrug-resistant; assay: MIC, Gram-negative bacteria: K. pneumoniae multidrug-resistant; details: Klebsiella pneumoniae, read-out: Minimal Inhibitory Concentration (MIC) K. pneumoniae multidrug-resistant
[2] = tested on: S. aureus Vat A streptogramin; assay: MIC, Gram-positive bacteria: S. aureus Vat A streptogramin; details: Staphylococcus aureus; Gram-positive; column 5; read-out: Minimal Inhibitory Concentration (MIC) S. aureus Vat A streptogramin
Gram-Negative Organisms = assay: microbe, parasite or virus in culture
S. aureus = assay: MIC, Gram-positive bacteria: S. aureus (strains not named); details: Staphylococcus aureus, read-out: Minimal Inhibitory Concentration (MIC) S. aureus
E. faecalis = assay: MIC, Gram-positive bacteria: E. faecalis; details: Enterococcus faecalis, column 1, read-out: Minimal Inhibitory Concentration (MIC) E. faecalis
[3] = tested on: S. aureus Linezolid-resistant; cfr; assay: MIC, Gram-positive bacteria: S. aureus Linezolid-resistant; cfr; details: Staphylococcus aureus, column 9, read-out: Minimal Inhibitory Concentration (MIC) S. aureus Linezolid-resistant
[4] = tested on: P. aeruginosa MDR clinical isolate; assay: MIC, Gram-negative bacteria: P. aeruginosa MDR clinical isolate; details: Pseudomonas aeruginosa, read-out: Minimal Inhibitory Concentration (MIC) P. aeruginosa MDR clinical isolate
E. faecium ATCC 35667 = assay: MIC, Gram-positive bacteria: E. faecium ATCC 35667; details: Enterococcus faecium, ATCC35667, column 2, read-out: Minimal Inhibitory Concentration (MIC) E. faecium ATCC 35667
S. pneumoniae = assay: MIC, Gram-positive bacteria: S. pneumoniae; details: Streptococcus pneumoniae, column 10, read-out: Minimal Inhibitory Concentration (MIC) S. pneumoniae
H. influenzae ATCC 49247 = assay: MIC, Gram-negative bacteria: H. influenzae ATCC 49247; details: Haemophilus influenzae, ATCC49247, read-out: Minimal Inhibitory Concentration (MIC) H. influenzae ATCC 49247
P. aeruginosa ATCC 27853 = assay: MIC, Gram-negative bacteria: P. aeruginosa ATCC 27853; details: Pseudomonas aeruginosa, ATCC27853, read-out: Minimal Inhibitory Concentration (MIC) P. aeruginosa ATCC 27853
E. faecium VRE; vanA = assay: MIC, Gram-positive bacteria: E. faecium VRE; vanA; details: Enterococcus faecium, column 3, read-out: Minimal Inhibitory Concentration (MIC) E. faecium VRE
[5] = Acinetobacter baumannii, ATCC19606, read-out: Minimal Inhibitory Concentration (MIC), A. baumannii ATCC 19606
[6] = Escherichia coli, ATCC25922, read-out: Minimal Inhibitory Concentration (MIC), E. coli ATCC 25922
[7] = Escherichia coli, read-out: Minimal Inhibitory Concentration (MIC), E. coli BAS2006, OMP C, OMP F
[8] = Escherichia coli, read-out: Minimal Inhibitory Concentration (MIC), E. coli olC efflux defective
[9] = Escherichia coli, read-out: Minimal Inhibitory Concentration (MIC), E. coli permeability mutant BAS1314, IMP4213ZAB::TN10
[10] = Escherichia coli, read-out: Minimal Inhibitory Concentration (MIC), E. coli ΔompC768, KanR insert
[11] = Klebsiella pneumoniae, ATCC43816, read-out: Minimal Inhibitory Concentration (MIC), K. pneumoniae ATCC 43816
[12] = first unnamed S. aureus column (c4)
[13] = fourth unnamed S. aureus column (c8)
[14] = second unnamed S. aureus column (c6)
[15] = third unnamed S. aureus column (c7)

SMILES	MIC [1]	MIC [2]	MIC (Gram-Negative Organisms; [5])	MIC (Gram-Negative Organisms; [6])	MIC (Gram-Negative Organisms; [7])	MIC (Gram-Negative Organisms; [8])	MIC (Gram-Negative Organisms; [9])	MIC (Gram-Negative Organisms; [11])	MIC (S. aureus; [12])	MIC (S. aureus; [13])	MIC (S. aureus; [14])	MIC (S. aureus; [15])	MIC (E. faecalis)	MIC [3]	MIC [4]	MIC (E. faecium ATCC 35667)	MIC (S. pneumoniae)	MIC (H. influenzae ATCC 49247)	MIC (P. aeruginosa ATCC 27853)	MIC (E. faecium VRE; vanA)	further results
CC1=C\[C@@H](O)C[C@@H](O)Cc2nc(cs2)C(=O)N2CCC[C@@H]2C(=O)O[C@H](C(C)C)[C@H](C)/C=C/C(=O)NC\C=C\1 [SA0110264]	> 64 mg/L	> 64 mg/L	> 64 mg/L	> 64 mg/L	4 mg/L (≈ 7.33 µM)	2 mg/L (≈ 3.67 µM)	1 mg/L (≈ 1.83 µM)	> 64 mg/L	8 mg/L (≈ 14.7 µM)	8 mg/L (≈ 14.7 µM)	16 mg/L (≈ 29.3 µM)	16 mg/L (≈ 29.3 µM)	> 64 mg/L	> 64 mg/L	> 64 mg/L	1 mg/L (≈ 1.83 µM)	2 mg/L (≈ 3.67 µM)	1 mg/L (≈ 1.83 µM)	> 64 mg/L	4 mg/L (≈ 7.33 µM)	MIC (Gram-Negative Organisms; [10]): > 64 mg/L
CC1=C\[C@@H](O)CC(=O)Cc2nc(co2)C(=O)N2CCC[C@@H]2C(=O)O[C@H]([C@@H](C)COC(=O)Nc2ccc(C(F)(F)F)cc2)[C@H](C)/C=C/C(=O)NC\C=C\1 [SA0110044]	> 64 mg/L	> 64 mg/L	> 64 mg/L	> 64 mg/L	> 64 mg/L	16 mg/L (≈ 21.9 µM)	16 mg/L (≈ 21.9 µM)	> 64 mg/L	> 64 mg/L	32 mg/L (≈ 43.8 µM)	> 64 mg/L	> 64 mg/L	> 64 mg/L	> 64 mg/L	> 64 mg/L	16 mg/L (≈ 21.9 µM)	> 64 mg/L	> 64 mg/L	> 64 mg/L	> 64 mg/L	–
CC1=C\[C@@H](O)C[C@@H](F)Cc2nc(co2)C(=O)N2CCC[C@@H]2C(=O)O[C@H](C(C)C)[C@H](C)/C=C/C(=O)NC\C=C\1 [flopristin, reference compound]	> 64 mg/L	8 mg/L (≈ 15 µM)	> 64 mg/L	32 mg/L (≈ 60.2 µM)	0.25 mg/L (≈ 0.47 µM)	1 mg/L (≈ 1.88 µM)	< 0.06 mg/L	> 64 mg/L	0.5 mg/L (≈ 0.941 µM)	0.5 mg/L (≈ 0.941 µM)	0.5 mg/L (≈ 0.941 µM)	1 mg/L (≈ 1.88 µM)	> 64 mg/L	> 64 mg/L	> 64 mg/L	0.5 mg/L (≈ 0.941 µM)	2 mg/L (≈ 3.76 µM)	0.25 mg/L (≈ 0.47 µM)	> 64 mg/L	2 mg/L (≈ 3.76 µM)	MIC (Gram-Negative Organisms; [10]): 64 mg/L (≈ 120 µM)
CC1=C\[C@@H](O)CC(=O)Cc2nc(co2)C(=O)N[C@H](Cc2c[nH]c3ccccc23)C(=O)O[C@H](C(C)C)[C@H](C)/C=C/C(=O)NC\C=C\1 [SA0202089]	> 64 mg/L	64 mg/L (≈ 104 µM)	> 64 mg/L	> 64 mg/L	32 mg/L (≈ 51.9 µM)	16 mg/L (≈ 25.9 µM)	8 mg/L (≈ 13 µM)	> 64 mg/L	32 mg/L (≈ 51.9 µM)	32 mg/L (≈ 51.9 µM)	32 mg/L (≈ 51.9 µM)	32 mg/L (≈ 51.9 µM)	> 64 mg/L	> 64 mg/L	> 64 mg/L	32 mg/L (≈ 51.9 µM)	32 mg/L (≈ 51.9 µM)	> 64 mg/L	> 64 mg/L	32 mg/L (≈ 51.9 µM)	–
CC1=C\[C@@H](O)CC(=O)Cc2nc(co2)C(=O)N2CCC[C@@H]2C(=O)O[C@H]([C@@H](C)COC(=O)Nc2ccc3ccccc3n2)[C@H](C)/C=C/C(=O)NC\C=C\1 [SA0110117]	> 64 mg/L	> 64 mg/L	> 64 mg/L	> 64 mg/L	8 mg/L (≈ 11.2 µM)	2 mg/L (≈ 2.8 µM)	4 mg/L (≈ 5.6 µM)	> 64 mg/L	16 mg/L (≈ 22.4 µM)	16 mg/L (≈ 22.4 µM)	16 mg/L (≈ 22.4 µM)	32 mg/L (≈ 44.8 µM)	> 64 mg/L	> 64 mg/L	> 64 mg/L	16 mg/L (≈ 22.4 µM)	4 mg/L (≈ 5.6 µM)	> 64 mg/L	> 64 mg/L	32 mg/L (≈ 44.8 µM)	–
